≈ marks a conversion by molar mass, not a printed value.
Test: Solubility in water
Type: physicochemical
Procedure: If B/A<1.0, which means an excess of diglycolic anhydride for reaction, the desired dialkyl diglycol amic acid is obtained as the reaction product, in which unreacted diglycolic acid may remain. When solvent extraction is carried out using dialkyl diglycol amic acid having diglycolic acid left therein, no satisfactory separation ability is available and the solution becomes white turbid because clad is formed between organic phase and aqueous phase. […] This is because the diglycolic acid remaining along with the metal extractant, dialkyl diglycol amic acid forms a complex with a rare earth metal ion, inhibiting satisfactory extraction and separation. That is, diglycolic acid becomes an inhibitory factor to extraction. To obtain diglycolic acid-free dialkyl diglycol amic acid as the rare earth metal extractant capable of normal extraction and separation, the step of removing unreacted diglycolic acid is necessary as in the prior art method. Specifically, the water-soluble diglycolic acid must be removed by removing the synthesis medium and washing the reaction product with water. […] In order to use the dialkyl diglycol amic acid in crystallized form as the rare earth metal extractant, filtration and drying steps are needed. The process becomes less efficient because extra steps are necessary as compared with the range of 1.0≦B/A≦1.2.

SMILES: CCCCCCCCN(CCCCCCCC)C(=O)COCC(=O)O [DODGAA, N,N-dioctyl-3-oxapentane-1,5-amic acid]
- solubility in water: 6.2 µM (≈ 2.22 µg/mL)
